Patent publication US9856220B2 (AbbVie Deutschland GmbH & Co. KG, priority 2011, dated 2018)

Legend:
rats [1] = settings: cited from earlier work
rats [2] = settings: cited from earlier work; remark: listed apart in the source
rats [3] = settings: rat, in vivo; cited from earlier work
[4] = Determination of the microsomal half-life / microsomal clearance, human liver microsomes; type: in vitro ADME; settings: 0.5 μM test substance, 0.25 mg of microsomal protein/ml, pH 7.4, 37° C.
Protocol: (§1) b) Determination of the Microsomal Half-Life:
(§2) The metabolic stability of the compounds of the invention was determined in the following assay.
(§3) The test substances were incubated in a concentration of 0.5 μM as follows:
(§4) 0.5 μM test substance are preincubated together with liver microsomes from different species (from rat, human or other species) (0.25 mg of microsomal protein/ml) in 0.05 M potassium phosphate buffer of pH 7.4 in microtiter plates at 37° C. for 5 min. The reaction is started by adding NADPH (1 mg/mL). After 0, 5, 10, 15, 20 and 30 min, 50 μl aliquots are removed, and the reaction is immediately stopped and cooled with the same volume of acetonitrile. The samples are frozen until analyzed. The remaining concentration of undegraded test substance is determined by MSMS. The half-life (T½) is determined from the gradient of the signal of test substance/unit time plot, it being possible to calculate the half-life of the test substance, assuming first order kinetics, from the decrease in the concentration of the compound with time. The microsomal clearance (mCl) is calculated from mCl=ln 2/T½/(content of microsomal protein in mg/ml)×1000 [ml/min/mg]

PDE10A = PDE10A (Homo sapiens (Human), UniProt Q9Y233); test: Measurement of PDE activity (recombinant PDE, cAMP HTRF); type: biochemical; settings: 20 nM cyclic nucleotide substrate, 60 minutes at 29 C
Chain of PDE10A (Q9Y233 whole entry, species assumed): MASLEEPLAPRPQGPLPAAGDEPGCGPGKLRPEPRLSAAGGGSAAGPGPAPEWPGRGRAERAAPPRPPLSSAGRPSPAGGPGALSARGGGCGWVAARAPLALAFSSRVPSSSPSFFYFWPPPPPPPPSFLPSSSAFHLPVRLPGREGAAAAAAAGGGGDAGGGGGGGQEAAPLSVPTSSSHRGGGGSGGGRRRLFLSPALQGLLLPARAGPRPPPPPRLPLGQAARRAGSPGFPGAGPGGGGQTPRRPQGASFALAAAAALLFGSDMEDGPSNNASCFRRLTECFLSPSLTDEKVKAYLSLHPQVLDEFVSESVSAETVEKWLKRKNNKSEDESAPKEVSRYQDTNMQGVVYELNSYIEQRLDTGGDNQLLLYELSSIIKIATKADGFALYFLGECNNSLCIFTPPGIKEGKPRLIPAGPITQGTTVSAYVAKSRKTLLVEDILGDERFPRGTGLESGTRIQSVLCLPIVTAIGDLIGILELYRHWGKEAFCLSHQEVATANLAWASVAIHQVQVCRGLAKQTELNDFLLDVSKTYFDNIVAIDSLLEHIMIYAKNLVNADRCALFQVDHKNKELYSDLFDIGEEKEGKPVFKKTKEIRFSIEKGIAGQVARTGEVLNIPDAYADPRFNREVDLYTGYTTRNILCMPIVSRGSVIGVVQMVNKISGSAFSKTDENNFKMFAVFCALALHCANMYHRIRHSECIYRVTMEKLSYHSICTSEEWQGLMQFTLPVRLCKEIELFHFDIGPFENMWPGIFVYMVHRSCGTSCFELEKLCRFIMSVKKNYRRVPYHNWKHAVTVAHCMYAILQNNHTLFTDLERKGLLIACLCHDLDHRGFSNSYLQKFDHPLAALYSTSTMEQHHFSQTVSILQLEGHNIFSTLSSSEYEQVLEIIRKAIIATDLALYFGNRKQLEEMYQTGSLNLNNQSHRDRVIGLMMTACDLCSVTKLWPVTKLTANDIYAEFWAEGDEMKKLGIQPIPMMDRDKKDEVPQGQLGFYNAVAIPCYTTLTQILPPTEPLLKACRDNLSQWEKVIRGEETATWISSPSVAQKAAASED
Outline: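 Recombinant human PDE10A in 20 mM Tris-HCl pH 7.5, 10 mM MgCl2, 0.1% BSA with 20 nM cyclic nucleotide substrate; reaction 60 min at 29 C after compound preincubation with enzyme. Residual cAMP detected by HTRF (cAMP-d2/anti-cAMP cryptate); IC50 from inhibitor concentration versus PDE activity.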

[5] = Determination of the microsomal half-life / microsomal clearance, rat liver microsomes; type: in vitro ADME; settings: 0.5 μM test substance, 0.25 mg of microsomal protein/ml, pH 7.4, 37° C.
Protocol: as §1, §2, §3, §4

| Structure (SMILES) | Human mCl [4] | IC50 (PDE10A) [nM] | Rat mCl [5] | catalepsy on its own (rats [1]; compound alone) | cataleptic effect of the D2 receptor antagonist haloperidol (rats [1]; with haloperidol) | hyperactivity induced by PCP (rats [2]) | reduction of amphetamine-induced hyperactivity (rats [3]) |
| --- | --- | --- | --- | --- | --- | --- | --- |
| COc1ccc(Cc2nccc3cc(OC)c(OC)cc23)cc1OC [Papaverine, papaverine] |  |  |  | did not cause catalepsy on its own | potentiated the cataleptic effect | reduced hyperactivity | insignificant |
| CCCCNC(=O)c1cn(CC)c(=O)c2cc(OC)c(OCCc3ccc4ccccc4n3)cc12 [Example 136, 2-Ethyl-7-methoxy-1-oxo-6-(2-quinolin-2-yl-ethoxy)-1,2-dihydro-isoquinoline-4-carboxylic acid butylamide] | + (100-220 μl min^−1 mg^−1) | < 100 | ∘ (>220 μl min^−1 mg^−1) |  |  |  |  |
| CCC(CC)n1cc(C(=O)NCC2CCCCC2)c2cc(OC)c(OC)cc2c1=O [Example 190, 2-(1-Ethyl-propyl)-6,7-dimethoxy-1-oxo-1,2-dihydro-isoquinoline-4-carboxylic acid cyclohexylmethyl-amide] | ∘ (>220 μl min^−1 mg^−1) | 100 to 200 | + (100-220 μl min^−1 mg^−1) |  |  |  |  |
| CCn1cc(C(=O)NC2CCc3ccc(F)cc32)c2cc(OC)c(OC)cc2c1=O (stereo not shown) [Example 171, 2-Ethyl-N-(6-fluoro-2,3-dihydro-1H-inden-1-yl)-6,7-dimethoxy-1-oxo-1,2-dihydroisoquinoline-4-carboxamide] | ++ (<100 μl min^−1 mg^−1) | 200 to 500 | ++ (<100 μl min^−1 mg^−1) |  |  |  |  |
| CCC(CC)n1cc(C(=O)NC2CCc3ccc(OC)cc32)c2cc(OC)c(OC)cc2c1=O (stereo not shown) [Example 256, 6,7-Dimethoxy-N-(6-methoxy-2,3-dihydro-1H-inden-1-yl)-1-oxo-2-(pentan-3-yl)-1,2-dihydroisoquinoline-4-carboxamide] | ∘ (>220 μl min^−1 mg^−1) | < 100 | + (100-220 μl min^−1 mg^−1) |  |  |  |  |
| CCC(CC)n1cc(C(=O)NCc2ccccn2)c2cc(OC)c(OC)cc2c1=O [Example 263, 6,7-Dimethoxy-1-oxo-2-(pentan-3-yl)-N-(pyridin-2-ylmethyl)-1,2-dihydroisoquinoline-4-carboxamide] | ++ (<100 μl min^−1 mg^−1) | 100 to 200 | ++ (<100 μl min^−1 mg^−1) |  |  |  |  |
| COc1cc2c(C(=O)NC3CCc4ccccc43)cn(C(C)C)c(=O)c2cc1OC (stereo not shown) [Example 198, 2-Isopropyl-6,7-dimethoxy-1-oxo-1,2-dihydro-isoquinoline-4-carboxylic acid indan-1-ylamide] | + (100-220 μl min^−1 mg^−1) | 200 to 500 | ++ (<100 μl min^−1 mg^−1) |  |  |  |  |
| CCC(CC)n1cc(C(=O)NCc2csc(C)n2)c2cc(OC)c(OC)cc2c1=O [Example 248, 6,7-Dimethoxy-N-((2-methylthiazol-4-yl)methyl)-1-oxo-2-(pentan-3-yl)-1,2-dihydroisoquinoline-4-carboxamide] | + (100-220 μl min^−1 mg^−1) | 100 to 200 | ++ (<100 μl min^−1 mg^−1) |  |  |  |  |
| CCC(CC)n1cc(C(=O)N[C@H]2CCc3ccccc32)c2cc(OC)c(OC)cc2c1=O [Example 192, 2-(1-Ethyl-propyl)-6,7-dimethoxy-1-oxo-1,2-dihydro-isoquinoline-4-carboxylic acid (S)-indan-1-ylamide] | ∘ (>220 μl min^−1 mg^−1) | < 100 | + (100-220 μl min^−1 mg^−1) |  |  |  |  |
| CCC(CC)n1cc(C(=O)NCc2ccccc2S(=O)(=O)N2CCN(C)CC2)c2cc(OC)c(OC)cc2c1=O [Example 219, 2-(1-Ethyl-propyl)-6,7-dimethoxy-1-oxo-1,2-dihydro-isoquinoline-4-carboxylic acid 2-(4-methyl-piperazine-1-sulfonyl)-benzylamide] | + (100-220 μl min^−1 mg^−1) | < 100 | + (100-220 μl min^−1 mg^−1) |  |  |  |  |
| CCC(CC)n1cc(C(=O)NC2CC(=O)c3sccc32)c2cc(OC)c(OC)cc2c1=O (stereo not shown) [Example 195, 2-(1-Ethyl-propyl)-6,7-dimethoxy-1-oxo-1,2-dihydro-isoquinoline-4-carboxylic acid (6-oxo-5,6-dihydro-4H-cyclopenta[b]thiophen-4-yl)-amide] | + (100-220 μl min^−1 mg^−1) | 100 to 200 | + (100-220 μl min^−1 mg^−1) |  |  |  |  |
| CCC(CC)n1cc(C(=O)NCc2occc2C)c2cc(OC)c(OC)cc2c1=O [Example 267, 6,7-Dimethoxy-N-((3-methylfuran-2-yl)methyl)-1-oxo-2-(pentan-3-yl)-1,2-dihydroisoquinoline-4-carboxamide] | + (100-220 μl min^−1 mg^−1) | 100 to 200 | ∘ (>220 μl min^−1 mg^−1) |  |  |  |  |
| CCC(CC)n1cc(C(=O)N[C@@H](C)c2ccc(F)cc2)c2cc(OC)c(OC)cc2c1=O [Example 246, (S)—N-(1-(4-fluorophenyl)ethyl)-6,7-dimethoxy-1-oxo-2-(pentan-3-yl)-1,2-dihydroisoquinoline-4-carboxamide] | ∘ (>220 μl min^−1 mg^−1) | 100 to 200 | + (100-220 μl min^−1 mg^−1) |  |  |  |  |
| CCC(CC)n1cc(C(=O)NCc2cc(C)on2)c2cc(OC)c(OC)cc2c1=O [Example 244, 6,7-Dimethoxy-N-((5-methylisoxazol-3-yl)methyl)-1-oxo-2-(pentan-3-yl)-1,2-dihydroisoquinoline-4-carboxamide] | ++ (<100 μl min^−1 mg^−1) | 200 to 500 | ++ (<100 μl min^−1 mg^−1) |  |  |  |  |
| CCC(CC)n1cc(C(=O)NCc2cc(C)no2)c2cc(OC)c(OC)cc2c1=O [Example 241, 6,7-Dimethoxy-N-((3-methylisoxazol-5-yl)methyl)-1-oxo-2-(pentan-3-yl)-1,2-dihydroisoquinoline-4-carboxamide] | ++ (<100 μl min^−1 mg^−1) | 100 to 200 | + (100-220 μl min^−1 mg^−1) |  |  |  |  |

Further lines, with some results ahead:

| Human mCl [4] | IC50 (PDE10A) [nM] | Rat mCl [5] | Structure (SMILES) | catalepsy on its own (rats [1]; compound alone) | cataleptic effect of the D2 receptor antagonist haloperidol (rats [1]; with haloperidol) | hyperactivity induced by PCP (rats [2]) | reduction of amphetamine-induced hyperactivity (rats [3]) |
| --- | --- | --- | --- | --- | --- | --- | --- |
| ++ (<100 μl min^−1 mg^−1) | 200 to 500 | ++ (<100 μl min^−1 mg^−1) | CCn1cc(C(=O)NC2CCc3sccc32)c2cc(OC)c(OC)cc2c1=O (single isomer, unassigned; (-)) [Example 205, (−)-2-Ethyl-6,7-dimethoxy-1-oxo-1,2-dihydro-isoquinoline-4-carboxylic acid (5,6-dihydro-4H-cyclopenta[b]thiophen-4-yl)-amide] |  |  |  |  |
| ++ (<100 μl min^−1 mg^−1) | 100 to 200 | ++ (<100 μl min^−1 mg^−1) | CCn1cc(C(=O)NC2CCc3sccc32)c2cc(OC)c(OC)cc2c1=O (stereo not shown) [Example 172, N-(5,6-Dihydro-4H-cyclopenta[b]thiophen-4-yl)-2-ethyl-6,7-dimethoxy-1-oxo-1,2-dihydroisoquinoline-4-carboxamide] |  |  |  |  |
| ++ (<100 μl min^−1 mg^−1) | < 100 | ++ (<100 μl min^−1 mg^−1) | CCn1cc(C(=O)NCc2ccc(C)cc2)c2cc(OC)c(OC)cc2c1=O [Example 161, 2-Ethyl-6,7-dimethoxy-N-(4-methylbenzyl)-1-oxo-1,2-dihydroisoquinoline-4-carboxamide] |  |  |  |  |
| ++ (<100 μl min^−1 mg^−1) | 200 to 500 | ++ (<100 μl min^−1 mg^−1) | CCc1ccc(CNC(=O)c2cn(CC)c(=O)c3cc(OC)c(OC)cc23)cc1 [Example 313, 2-Ethyl-N-[(4-ethylphenyl)methyl]-6,7-dimethoxy-1-oxo-isoquinoline-4-carboxamide] |  |  |  |  |
| ++ (<100 μl min^−1 mg^−1) | 100 to 200 | ++ (<100 μl min^−1 mg^−1) | CCn1cc(C(=O)Nc2ccc(C)cc2)c2cc(OC)c(OC)cc2c1=O [Example 158, 2-Ethyl-6,7-dimethoxy-1-oxo-N-p-tolyl-1,2-dihydroisoquinoline-4-carboxamide] |  |  |  |  |
| ++ (<100 μl min^−1 mg^−1) | 100 to 200 | ++ (<100 μl min^−1 mg^−1) | CCn1cc(C(=O)NC2CCc3ccccc32)c2cc(OC)c(OC)cc2c1=O (stereo not shown) [Example 40, 2-Ethyl-6,7-dimethoxy-1-oxo-1,2-dihydro-isoquinoline-4-carboxylic acid indan-1-ylamide] |  |  |  |  |
| ++ (<100 μl min^−1 mg^−1) | 100 to 200 | ++ (<100 μl min^−1 mg^−1) | CCn1cc(C(=O)Nc2cccc(OC)c2)c2cc(OC)c(OC)cc2c1=O [Example 147, 2-Ethyl-6,7-dimethoxy-N-(3-methoxyphenyl)-1-oxo-1,2-dihydroisoquinoline-4-carboxamide] |  |  |  |  |
| ++ (<100 μl min^−1 mg^−1) | 200 to 500 | ++ (<100 μl min^−1 mg^−1) | CCn1cc(C(=O)NCc2csc(C)n2)c2cc(OC)c(OC)cc2c1=O [Example 316, 2-Ethyl-6,7-dimethoxy-N-[(2-methylthiazol-4-yl)methyl]-1-oxo-isoquinoline-4-carboxamide] |  |  |  |  |
